These results are taken from patent US7947717B2 (priority 2008, dated 2011).

Like-named read-outs stand apart in the source and are kept apart here.

The target in experiment [1] is lethal factor (LF) (Bacillus anthracis, UniProt P15917). The experiment in a line: biochemical. Type of experiment: biochemical.
For experiment [2], the target named is BoNT A (Clostridium botulinum, UniProt P0DPI0). As to the kind of experiment: biochemical.
Chain of BoNT A (P0DPI0 whole entry, looked up): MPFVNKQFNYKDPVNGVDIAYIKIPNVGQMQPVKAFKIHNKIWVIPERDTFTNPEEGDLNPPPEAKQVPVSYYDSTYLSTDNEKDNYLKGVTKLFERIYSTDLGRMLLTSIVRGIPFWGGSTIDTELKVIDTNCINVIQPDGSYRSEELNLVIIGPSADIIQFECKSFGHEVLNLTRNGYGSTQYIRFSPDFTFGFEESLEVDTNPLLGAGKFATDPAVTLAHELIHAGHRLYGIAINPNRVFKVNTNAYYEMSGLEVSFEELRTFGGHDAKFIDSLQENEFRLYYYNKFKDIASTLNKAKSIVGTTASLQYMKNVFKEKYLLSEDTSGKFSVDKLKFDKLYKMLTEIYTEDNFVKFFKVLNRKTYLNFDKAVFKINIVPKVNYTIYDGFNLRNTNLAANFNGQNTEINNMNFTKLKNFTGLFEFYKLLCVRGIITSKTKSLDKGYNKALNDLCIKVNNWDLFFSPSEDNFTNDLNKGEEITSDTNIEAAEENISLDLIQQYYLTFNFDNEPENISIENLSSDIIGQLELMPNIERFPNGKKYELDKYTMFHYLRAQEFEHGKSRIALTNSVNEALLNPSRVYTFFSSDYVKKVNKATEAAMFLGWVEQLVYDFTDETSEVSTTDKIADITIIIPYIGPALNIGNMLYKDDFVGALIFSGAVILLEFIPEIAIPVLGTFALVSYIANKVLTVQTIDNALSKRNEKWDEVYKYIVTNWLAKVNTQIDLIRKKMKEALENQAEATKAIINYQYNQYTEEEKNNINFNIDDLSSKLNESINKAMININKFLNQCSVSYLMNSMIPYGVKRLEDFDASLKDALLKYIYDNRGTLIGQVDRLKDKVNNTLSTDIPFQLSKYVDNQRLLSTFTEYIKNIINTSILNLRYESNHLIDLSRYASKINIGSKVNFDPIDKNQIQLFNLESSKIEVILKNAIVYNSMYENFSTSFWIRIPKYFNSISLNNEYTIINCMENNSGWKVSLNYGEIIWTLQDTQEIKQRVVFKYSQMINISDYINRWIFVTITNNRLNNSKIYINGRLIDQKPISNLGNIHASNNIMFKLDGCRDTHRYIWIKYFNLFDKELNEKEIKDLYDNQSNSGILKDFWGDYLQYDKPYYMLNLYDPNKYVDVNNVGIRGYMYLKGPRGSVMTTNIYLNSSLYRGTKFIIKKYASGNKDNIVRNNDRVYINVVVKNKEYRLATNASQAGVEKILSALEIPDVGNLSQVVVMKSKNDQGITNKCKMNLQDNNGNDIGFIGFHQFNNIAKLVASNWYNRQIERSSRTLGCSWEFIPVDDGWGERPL

Chain of lethal factor (LF) (P15917 34-809 limits assumed): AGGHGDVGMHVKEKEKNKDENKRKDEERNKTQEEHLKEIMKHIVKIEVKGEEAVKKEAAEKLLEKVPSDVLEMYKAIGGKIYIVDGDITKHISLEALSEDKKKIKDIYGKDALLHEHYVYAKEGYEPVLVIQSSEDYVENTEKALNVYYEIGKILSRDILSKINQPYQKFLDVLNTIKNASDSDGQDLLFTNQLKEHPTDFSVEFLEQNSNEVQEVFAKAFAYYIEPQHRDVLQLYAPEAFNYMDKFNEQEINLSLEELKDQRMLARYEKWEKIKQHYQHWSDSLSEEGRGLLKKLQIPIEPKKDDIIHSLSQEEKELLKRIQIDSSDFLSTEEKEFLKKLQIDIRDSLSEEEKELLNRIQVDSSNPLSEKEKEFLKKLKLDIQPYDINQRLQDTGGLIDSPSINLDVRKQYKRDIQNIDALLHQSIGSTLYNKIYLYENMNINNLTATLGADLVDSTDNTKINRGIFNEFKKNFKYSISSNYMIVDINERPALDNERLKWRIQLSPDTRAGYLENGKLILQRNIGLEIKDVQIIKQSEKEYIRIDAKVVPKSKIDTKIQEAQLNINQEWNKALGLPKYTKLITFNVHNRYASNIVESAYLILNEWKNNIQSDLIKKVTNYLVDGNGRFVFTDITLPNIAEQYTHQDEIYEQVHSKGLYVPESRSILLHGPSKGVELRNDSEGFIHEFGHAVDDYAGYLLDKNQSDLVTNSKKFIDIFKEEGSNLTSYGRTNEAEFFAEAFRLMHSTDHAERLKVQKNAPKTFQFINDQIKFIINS

In the case of `CN(CCOc1ccc(CC2SC(=O)NC2=O)cc1)c1ccccn1` (stereo not drawn) [Compound 2, 5-(4-(2-(methyl(pyridin-2-yl)amino)ethoxy)benzyl)thiazolidine-2,4-dione, reference compound], in experiment [1], the “inhibition of LF, kinetic assay (in words)” value is reported as “did not appreciably inhibit”. Moreover, the “inhibition of BoNT A, kinetic assay (in words)” value in experiment [2] is on record as “did not appreciably inhibit”. For the compound `O=C(O)CN1C(=O)/C(=C/c2ccc(-c3ccc([N+](=O)[O-])cc3Cl)o2)SC1=S` [Compound 4], the IC50 in experiment [1] (pH 7.4, read-out: LF IC50) amounted to 2.1 µM; in experiment [2], 11.8 µM.

With `O=C(O)CC(C(=O)O)N1C(=O)/C(=C/c2ccc(-c3ccc(Br)cc3)o2)SC1=S` (stereo not drawn) [Compound 5], the IC50 in experiment [1] (pH 7.4, read-out: LF IC50) was determined as 3.98 µM; in experiment [2], 51.6 µM. `O=C(O)CCC(C(=O)O)N1C(=O)/C(=C/c2ccc(-c3ccc([N+](=O)[O-])cc3)o2)SC1=S` (stereo not drawn) [Compound 6]: the IC50 in experiment [1] (pH 7.4, read-out: LF IC50) was 4.91 µM; in experiment [2] it was 148 µM. Take `O=C(O)C(c1ccccc1)N1C(=O)/C(=C/c2ccc(-c3cccc(Cl)c3)o2)SC1=S` (stereo not drawn) [Compound 8]: the IC50 in experiment [1] (pH 7.4, read-out: LF IC50) was 4.34 µM; in experiment [2], 127 µM. As to `O=C1/C(=C/c2ccc(-c3cccc([N+](=O)[O-])c3)o2)SC(=S)N1CCS(=O)(=O)O` [Compound 9, (Z)-2-(5-((5-(3-nitrophenyl)furan-2-yl)methylene)-4-oxo-2-thioxothiazolidin-3-yl)ethanesulfonic acid], in experiment [1], the Ki turned out to be 0.1 µM. Also, the IC50 in experiment [1] (pH 7.4, read-out: LF IC50) was 1.09 µM.

Regarding `O=C1/C(=C/c2ccc(-c3cccc(Cl)c3)o2)SC(=S)N1CCS(=O)(=O)O` [Compound 10, (Z)-2-(5-((5-(3-chlorophenyl)furan-2-yl)methylene)-4-oxo-2-thioxothiazolidin-3-yl)ethanesulfonic acid], the IC50 in experiment [1] (pH 7.4, read-out: LF IC50) came to 1.7 µM; in experiment [2], 19.9 µM.

As to `O=C1/C(=C/c2ccc(-c3ccc(Cl)c(Cl)c3)o2)SC(=S)N1CCS(=O)(=O)O` [Compound 11, (Z)-2-(5-((5-(3,4-dichlorophenyl)furan-2-yl)methylene)-4-oxo-2-thioxothiazolidin-3-yl)ethanesulfonic acid], the IC50 worked out at 1.78 µM in experiment [1] (pH 7.4, read-out: LF IC50) and 11.1 µM in experiment [2]. On to `O=C1/C(=C/c2ccc(-c3ccc(Cl)cc3)o2)SC(=S)N1CCS(=O)(=O)O` [Compound 12, (Z)-2-(5-((5-(4-chlorophenyl)furan-2-yl)methylene)-4-oxo-2-thioxothiazolidin-3-yl)ethanesulfonic acid], for which the IC50 in experiment [2] was over 200 µM.

For the compound `O=C(O)C(c1ccccc1)N1C(=O)/C(=C/c2ccc(-c3ccc(Cl)cc3Cl)o2)SC1=S` (stereo not drawn) [Compound 13], the Ki in experiment [1] worked out at 1 µM. Moreover, the IC50 in experiment [1] (pH 7.4, read-out: LF IC50) was 1.2 µM; in experiment [2], over 200 µM. In the case of `O=C1/C(=C/c2ccc(-c3cccc(Cl)c3Cl)o2)SC(=S)N1C1CCS(=O)(=O)C1` (stereo not drawn) [Compound 14, (5Z)-5-{[5-(2,3-dichlorophenyl)-2-furyl]methylene}-3-(1,1-dioxidotetrahydrothien-3-yl)-2-thioxo-1,3-thiazolidin-4-one], in experiment [2], the IC50 was over 200 µM. Still for that read-out and setting: then `O=C1/C(=C/c2ccc(-c3cc(Cl)ccc3Cl)o2)SC(=S)N1CC1CCCO1` (stereo not drawn) [Compound 16, (Z)-5-((5-(2,5-dichlorophenyl)furan-2-yl)methylene)-3-((tetrahydrofuran-2-yl)methyl)-2-thioxothiazolidin-4-one], with over 50 µM. As for `Cc1nc(/C=C2\SC(=S)N(CC(=O)O)C2=O)c(C)o1` [Compound 17, (Z)-2-(5-((2,5-dimethyloxazol-4-yl)methylene)-4-oxo-2-thioxothiazolidin-3-yl)acetic acid], the IC50 was 100 µM in experiment [1] (pH 7.4, read-out: LF IC50) and over 200 µM in experiment [2]. For `CC(C)(C)OC(=O)N1CCC(c2nc(/C=C3\SC(=S)N(CC(=O)O)C3=O)cs2)CC1` [Compound 18, (Z)-2-(5-((2-(1-(tert-butoxycarbonyl)piperidin-4-yl)thiazol-4-yl)methylene)-4-oxo-2-thioxothiazolidin-3-yl)acetic acid] the same measures were 20 µM and 176 µM. For `Cc1nc(-c2ccccc2)c(/C=C2\SC(=S)N(CC(=O)O)C2=O)s1` [Compound 19, (Z)-2-(5-((2-methyl-4-phenylthiazol-5-yl)methylene)-4-oxo-2-thioxothiazolidin-3-yl)acetic acid] the same measures were 41 µM and over 200 µM. As to `O=C(O)CN1C(=O)/C(=C/c2c[nH]nc2-c2ccc(C(F)(F)F)cc2)SC1=S` [Compound 27, (Z)-2-(4-oxo-2-thioxo-5-((3-(4-(trifluoromethyl)phenyl)-1H-pyrazol-4-yl)methylene)thiazolidin-3-yl)acetic acid], the IC50 in experiment [1] is 24.6 µM; in experiment [2], over 200 µM. Regarding `O=C(O)CN1C(=O)/C(=C/c2cc(-c3ccc(Cl)cc3)[nH]n2)SC1=S` [Compound 28], the IC50 in experiment [1] is over 100 µM; in experiment [2], over 200 µM. For the compound `O=C(O)CN1C(=O)/C(=C/c2cn(-c3ccccc3)nc2-c2cccs2)SC1=S` [Compound 29, (Z)-2-(4-oxo-5-((1-phenyl-3-(thiophen-2-yl)-1H-pyrazol-4-yl)methylene)-2-thioxothiazolidin-3-yl)acetic acid], the IC50 was determined as 3.07 µM in experiment [1] (pH 7.4, read-out: LF IC50) and 160 µM in experiment [2]. As for `O=C(O)CN1C(=O)/C(=C/c2cn(-c3ccccc3)nc2-c2ccccc2)SC1=S` [Compound 30, (Z)-2-(5-((1,3-diphenyl-1H-pyrazol-4-yl)methylene)-4-oxo-2-thioxothiazolidin-3-yl)acetic acid], the IC50 in experiment [1] (pH 7.4, read-out: LF IC50) was 6.25 µM; in experiment [2] it was 111 µM. For `O=C(O)CN1C(=O)/C(=C/c2cn(-c3ccccc3)nc2-c2ccc(S(=O)(=O)N3CCOCC3)cc2)SC1=S` [Compound 31] the same measures were 4.26 µM and over 200 µM. Regarding `COc1ccc(-c2nn(-c3ccccc3)cc2/C=C2\SC(=S)N(CC(=O)O)C2=O)cc1C` [Compound 36, (Z)-2-(5-((3-(4-methoxy-3-methylphenyl)-1-phenyl-1H-pyrazol-4-yl)methylene)-4-oxo-2-thioxothiazolidin-3-yl)acetic acid], the IC50 in experiment [1] (pH 7.4, read-out: LF IC50) is 3.58 µM; in experiment [2], 127 µM.

On to `CCOc1ccc(-c2nn(-c3ccccc3)cc2/C=C2\SC(=S)N(CC(=O)O)C2=O)c(C)c1` [Compound 37, (Z)-2-(5-((3-(4-ethoxy-2-methylphenyl)-1-phenyl-1H-pyrazol-4-yl)methylene)-4-oxo-2-thioxothiazolidin-3-yl)acetic acid], for which the IC50 in experiment [1] (pH 7.4, read-out: LF IC50) stood at 4.87 µM; in experiment [2], 130 µM. `O=C1/C(=C/c2cn(-c3ccccc3)nc2-c2ccccc2)SC(=S)N1C1CCS(=O)(=O)C1` (stereo not drawn) [Compound 44, 3-(1,1-Dioxo-tetrahydro-thiophen-3-yl)-5-[1-(1,3-diphenyl-1H-pyrazol-4-yl)-meth-(Z)-ylidene]-2-thioxo-thiazolidin-4-one] came in with an IC50 in experiment [2] of over 200 µM. On the same count and under the same terms, then `O=C1/C(=C/c2cn(-c3ccccc3)nc2-c2ccc(Cl)cc2)SC(=S)N1C1CCS(=O)(=O)C1` (stereo not drawn) [Compound 45, 5-[1-[3-(4-Chloro-phenyl)-1-phenyl-1H-pyrazol-4-yl]-meth-(Z)-ylidene]-3-(1,1-dioxo-tetrahydro-thiophen-3-yl)-2-thioxo-thiazolidin-4-one], with over 200 µM; and `CN1CCCN(c2ccc(/C=C3\SC(=S)N(CC(=O)O)C3=O)cc2)CC1` [Compound 51], with over 50 µM.

What is called IC50 is the concentration that inhibits the measured activity by half. As usually defined, the Ki is the equilibrium dissociation constant of an inhibitor or competing ligand from its target. High values mean lower affinity, low ones higher affinity.
